Experimental data: US5567692A, “9-[(substituted glycyl) amido)]-6-demethyl-6-deoxytetracyclines” (priority 1995, dated 1996)
Structures can show the parent of a compound that is named as a salt. Where two headings read alike, the source gives them in different places.

How the values were obtained:
[1] = system: S. aureus SMITH (MP); experiment: MIC, agar dilution; type: cell-based; details: Staphylococcus aureus, 18 h
[2] = system: S. aureus UBMS 88-7 Tet K; experiment: microbe, parasite or virus in culture; type: cell-based; details: Staphylococcus aureus, UBMS887TETK, 18 h
[3] = system: S. aureus UBMS 90-1 Tet M; experiment: microbe, parasite or virus in culture; type: cell-based; details: Staphylococcus aureus, UBMS901TETM, 18 h
[4] = system: E. coli UBMS 88-1 Tet B; experiment: microbe, parasite or virus in culture; type: cell-based; details: Escherichia coli, UBMS881TETB, 18 h
[5] = system: E. coli BAJ9003 IMP MUT; experiment: microbe, parasite or virus in culture; type: cell-based; details: Escherichia coli, BAJ9003IMPMUT, 18 h
[6] = system: E. coli J3272 Tet sens; experiment: MIC, agar dilution; type: cell-based; details: Escherichia coli, J3272TETSENS, 18 h
[7] = system: E. coli #311 (MP); experiment: MIC, agar dilution; type: cell-based; details: Escherichia coli, 18 h
[8] = system: E. faecalis ATCC 29212; experiment: MIC, agar dilution; type: cell-based; details: Enterococcus faecalis, ATCC29212, 18 h
[9] = system: S. aureus IVES 1983; experiment: MIC, agar dilution; type: cell-based; details: Staphylococcus aureus, IVES1983, 18 h
[10] = system: Enterococcus 12201; experiment: MIC, agar dilution; type: cell-based; details: Enterococcus, 12201, 18 h
[11] = system: S. aureus UBMS 90-3; experiment: MIC, agar dilution; type: cell-based; details: Staphylococcus aureus, UBMS903, 18 h
[12] = system: S. aureus ATCC 29213; experiment: MIC, agar dilution; type: cell-based; details: Staphylococcus aureus, ATCC29213, 18 h
[13] = system: Ps. aeruginosa ATCC 27853; experiment: MIC, agar dilution; type: cell-based; details: Pseudomonas aeruginosa, ATCC27853, 18 h, Ps. aeruginosa ATCC 27853; read-out: MIC
[14] = system: S. aureus UBMS 88-4; experiment: MIC, agar dilution; type: cell-based; details: Staphylococcus aureus, UBMS884, 18 h, S. aureus UBMS 88-4
[15] = system: E. coli UBMS 89-2 Tet sens.; experiment: MIC, agar dilution; type: cell-based; details: Escherichia coli, 18 h
[16] = system: E. coli MC 4100 TNIOC Tet B; experiment: microbe, parasite or virus in culture; type: cell-based; details: Escherichia coli, 18 h
[17] = system: S. aureus UBMS 90-2 Tet M; experiment: microbe, parasite or virus in culture; type: cell-based; details: Staphylococcus aureus, UBMS902TETM, 18 h
[18] = system: S. marcescens FPOR 8733; experiment: MIC, agar dilution; type: cell-based; details: Serratia marcescens, FPOR8733, 18 h
[19] = system: E. coli J2175; experiment: MIC, agar dilution; type: cell-based; details: Escherichia coli, 18 h, read-out: MIC
[20] = system: S. aureus NEMC 8769; experiment: MIC, agar dilution; type: cell-based; details: Staphylococcus aureus, NEMC8769, 18 h
[21] = system: X. maltophilia NEMC 87210; experiment: MIC, agar dilution; type: cell-based; details: Stenotrophomonas maltophilia, NEMC87210, 18 h
[22] = system: S. aureus ROSE (MP); experiment: MIC, agar dilution; type: cell-based; details: Staphylococcus aureus, 18 h
[23] = system: E. coli UBMS 90-4 Tet M; experiment: microbe, parasite or virus in culture; type: cell-based; details: Escherichia coli, UBMS904TETM, 18 h
[24] = system: E. coli J3272 Tet D; experiment: microbe, parasite or virus in culture; type: cell-based; details: Escherichia coli, J3272TETD, 18 h
[25] = system: E. coli UBMS 90-5; experiment: microbe, parasite or virus in culture; type: cell-based; details: Escherichia coli, UBMS905, 18 h, E. coli UBMS 90-5; read-out: MIC
[26] = system: E. coli J3272 Tet C; experiment: microbe, parasite or virus in culture; type: cell-based; details: Escherichia coli, J3272TETC, 18 h
[27] = system: S. aureus UBMS 88-5 Tet M; experiment: microbe, parasite or virus in culture; type: cell-based; details: Staphylococcus aureus, UBMS885TETM, 18 h
[28] = system: S. hemolyticus AVHAH 88-3; experiment: MIC, agar dilution; type: cell-based; details: Streptococcus pyogenes, AVHAH883, 18 h
[29] = system: E. coli ATCC 25922; experiment: MIC, agar dilution; type: cell-based; details: Escherichia coli, ATCC25922, 18 h
[30] = system: E. coli PRP1 Tet A; experiment: microbe, parasite or virus in culture; type: cell-based; details: Escherichia coli, PRP1TETA, 18 h
[31] = system: E. coli UBMS 89-1 Tet M; experiment: microbe, parasite or virus in culture; type: cell-based; details: Escherichia coli, UBMS891TETM, 18 h
[32] = system: S. aureus IVES 2943; experiment: MIC, agar dilution; type: cell-based; details: Staphylococcus aureus, IVES2943, 18 h
[33] = system: Staphylococcus aureus strain Smith (tetracycline sensitive); experiment: Acute lethal infection in mice, S. aureus Smith; type: in vivo; details: for ED50: Staphylococcus aureus, 168 h, mice, S. aureus Smith (Sens), 7 day survival, read-out: ED50
[34] = S. aureus IVES 2943, read-out: MIC

SMILES	MIC [1] [µg/mL]	MIC [2] [µg/mL]	MIC [3] [µg/mL]	MIC [4] [µg/mL]	MIC [5] [µg/mL]	MIC [6] [µg/mL]	MIC [7] [µg/mL]	MIC [10] [µg/mL]	MIC [13] [µg/mL]	MIC [15] [µg/mL]	MIC [16] [µg/mL]	MIC [17] [µg/mL]	MIC [18] [µg/mL]	MIC [19] [µg/mL]	MIC [23] [µg/mL]	MIC [24] [µg/mL]	MIC [25] [µg/mL]	MIC [26] [µg/mL]	MIC [28] [µg/mL]	MIC [29] [µg/mL]	further results
CC(Br)C(=O)Nc1ccc2c(c1O)C(=O)C1=C(O)[C@]3(O)C(=O)C(C(N)=O)=C(O)[C@@H](N(C)C)C3CC1C2 (stereo partly drawn) [S, [4S-(4alpha,12aalpha)]-9-[(2-Bromo-1-oxopropyl)amino]-4-(dimethylamino)-1,4,4a,5,5a,6,11,12a-octahydro-3,10,12,12a-tetrahydroxy-1,11-dioxo-2-naphthacenecarboxamide dihydrochloride]	1	16	32	> 32	1	4	8	32	> 32	16	> 32	16	> 32	16	> 32	> 32	8	> 32	8	8	MIC [8]: 16 µg/mL; MIC ([9]; S. aureus IVES 1983, read-out: MIC): 32 µg/mL; MIC ([11]; S. aureus UBMS 90-3, read-out: MIC): 2 µg/mL; MIC ([12]; S. aureus ATCC 29213, read-out: MIC): 2 µg/mL; MIC ([14]; read-out: MIC): 2 µg/mL; MIC ([20]; read-out: MIC): 0.25 µg/mL; MIC ([21]; X. maltophilia NEMC 87210, read-out: MIC): 16 µg/mL; MIC [22]: > 32 µg/mL; MIC [27]: 32 µg/mL; MIC [30]: > 32 µg/mL; MIC [31]: > 32 µg/mL; MIC [32, 34]: 32 µg/mL
CCCCNCC(=O)Nc1ccc2c(c1O)C(=O)C1=C(O)[C@]3(O)C(=O)C(C(N)=O)=C(O)[C@@H](N(C)C)C3CC1C2 (stereo partly drawn) [H, [4S-(4alpha,12aalpha)]-9-[[(Butylamino)acetyl]amino]-4-(dimethylamino)-1,4,4a,5,5a,6,11,12a-octahydro-3,10,12,12a-tetrahydroxy-1,11-dioxo-2-naphthacenecarboxamide dihydrochloride]	0.12	1	0.12	0.25	0.06	0.12	0.12	0.12	8	0.12	0.25	0.12	2	0.25	0.12	0.06	0.12	0.12	0.5	0.12	ED50 ([33]; iv, Intraveneous): 0.5 to 1 mg/kg; ED50 ([33]; po, Oral): > 16 mg/kg; in vivo activity (in words) ([33]; tested intravenously against the minocycline sensitive organism S. aureus Smith): very good in vivo activity; MIC ([8]; E. faecalis ATCC 29212, read-out: MIC): 0.12 µg/mL; MIC [9]: 2 µg/mL; MIC [11]: 0.03 µg/mL; MIC [12]: 0.06 µg/mL; MIC [14]: 0.06 µg/mL; MIC [20]: 0.03 µg/mL; MIC [21]: 1 µg/mL; MIC ([22]; read-out: MIC): 4 µg/mL; MIC ([27]; S. aureus UBMS 88-5 Tet M): 0.06 µg/mL; MIC [30]: 0.25 µg/mL; MIC [31]: 0.12 µg/mL; MIC [32, 34]: 1 µg/mL
CN(C)[C@@H]1C(O)=C(C(N)=O)C(=O)[C@@]2(O)C(O)=C3C(=O)c4c(ccc(NC(=O)CBr)c4O)CC3CC12 (stereo partly drawn) [R, [4S-(4alpha,12aalpha)]-9-((Bromoacetyl)amino]-4-(dimethylamino)-1,4,4a,5,5a,6,11,12a-octahydro-3,10,12,12a-tetrahydroxy-1,11-dioxo-2-naphthacenecarboxamide monohydrochloride]	1	8	1	> 32	1	32	16	4	> 32	32	> 32	2	> 32	32	32	> 32	32	> 32	8	16	MIC [8]: 2 µg/mL; MIC [9]: 16 µg/mL; MIC [11]: 1 µg/mL; MIC ([12]; S. aureus ATCC 29213): 1 µg/mL; MIC ([14]; read-out: MIC): 0.5 µg/mL; MIC ([20]; read-out: MIC): 0.25 µg/mL; MIC [21]: 16 µg/mL; MIC [22]: 16 µg/mL; MIC [27]: 2 µg/mL; MIC [30]: > 32 µg/mL; MIC [31]: 8 µg/mL; MIC [32]: 16 µg/mL
